The text below walks through data of patent US5641772A, “Condensed diazepinones, processes for preparing them and agents containing these compounds for treating diseases of the central nervous system and for promoting cerebral blood circulation” (Dr. Karl Thomae GmbH, priority 1991, dated 1997).

The target of assay [1] is T1, M1 -receptors of the cortex (Rattus norvegicus, UniProt P08482).
T1 construct: The cerebral cortex, heart and salivary glands were removed, washed and homogenised; from tissue; host or cells: rat cerebral cortex homogenate (Wistar, Chbb: THOM)
T1 sequence (P08482 1-460): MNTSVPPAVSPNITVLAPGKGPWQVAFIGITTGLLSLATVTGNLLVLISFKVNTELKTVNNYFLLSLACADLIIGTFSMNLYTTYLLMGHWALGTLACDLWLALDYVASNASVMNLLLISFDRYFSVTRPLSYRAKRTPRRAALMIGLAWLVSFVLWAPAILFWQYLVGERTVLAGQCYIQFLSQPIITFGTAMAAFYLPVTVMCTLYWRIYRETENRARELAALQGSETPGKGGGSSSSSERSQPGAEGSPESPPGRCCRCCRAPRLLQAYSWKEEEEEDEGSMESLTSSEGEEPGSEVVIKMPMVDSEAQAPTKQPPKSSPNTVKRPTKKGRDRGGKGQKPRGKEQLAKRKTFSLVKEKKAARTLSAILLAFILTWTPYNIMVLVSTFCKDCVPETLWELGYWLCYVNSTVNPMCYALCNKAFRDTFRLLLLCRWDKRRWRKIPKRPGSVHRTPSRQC
Briefly: Receptor binding test, [3H]pirenzepine, cerebral cortex (M1). On the set-up: species or system Male Wistar rats. The note with it: in vitro, 1 nM [3H]pirenzepine, 90 minutes.

Assay [2] concerns the target T2, M2 (Heart) muscarinic receptors (Rattus norvegicus, UniProt P10980).
T2 construct: The cerebral cortex, heart and salivary glands were removed, washed and homogenised; from tissue; host or cells: rat heart homogenate (Wistar, Chbb: THOM)
T2 sequence (P10980 1-466): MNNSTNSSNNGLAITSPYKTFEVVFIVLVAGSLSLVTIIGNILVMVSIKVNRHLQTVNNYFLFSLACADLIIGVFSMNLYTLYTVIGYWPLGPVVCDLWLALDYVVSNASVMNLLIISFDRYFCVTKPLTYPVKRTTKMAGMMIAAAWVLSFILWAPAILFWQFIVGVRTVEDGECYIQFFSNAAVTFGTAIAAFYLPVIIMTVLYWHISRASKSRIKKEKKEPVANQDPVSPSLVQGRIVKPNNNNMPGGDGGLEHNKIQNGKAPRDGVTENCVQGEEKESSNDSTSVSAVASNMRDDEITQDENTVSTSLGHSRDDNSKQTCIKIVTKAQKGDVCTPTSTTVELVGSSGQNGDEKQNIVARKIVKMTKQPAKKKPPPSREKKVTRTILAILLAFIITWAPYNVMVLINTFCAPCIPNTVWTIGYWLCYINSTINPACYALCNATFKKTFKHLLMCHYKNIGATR
Briefly: Receptor binding test, [3H]NMS, heart (M2). On the set-up: species or system Male Wistar rats. The note with it: for Ki: in vitro, rat heart, 0.3 nM [3H]NMS, 40 minutes; for Selectivity ratio (M1 /M2): ratio of Ki M1 (cortex) to Ki M2 (heart).

Assay [3] deals with T3, M3 (Submandibular gland) muscarinic receptors (Rattus norvegicus, UniProt P08483).
T3 construct: The cerebral cortex, heart and salivary glands were removed, washed and homogenised; from tissue; host or cells: rat salivary (submandibular) gland homogenate (Wistar, Chbb: THOM)
T3 sequence (P08483 whole entry): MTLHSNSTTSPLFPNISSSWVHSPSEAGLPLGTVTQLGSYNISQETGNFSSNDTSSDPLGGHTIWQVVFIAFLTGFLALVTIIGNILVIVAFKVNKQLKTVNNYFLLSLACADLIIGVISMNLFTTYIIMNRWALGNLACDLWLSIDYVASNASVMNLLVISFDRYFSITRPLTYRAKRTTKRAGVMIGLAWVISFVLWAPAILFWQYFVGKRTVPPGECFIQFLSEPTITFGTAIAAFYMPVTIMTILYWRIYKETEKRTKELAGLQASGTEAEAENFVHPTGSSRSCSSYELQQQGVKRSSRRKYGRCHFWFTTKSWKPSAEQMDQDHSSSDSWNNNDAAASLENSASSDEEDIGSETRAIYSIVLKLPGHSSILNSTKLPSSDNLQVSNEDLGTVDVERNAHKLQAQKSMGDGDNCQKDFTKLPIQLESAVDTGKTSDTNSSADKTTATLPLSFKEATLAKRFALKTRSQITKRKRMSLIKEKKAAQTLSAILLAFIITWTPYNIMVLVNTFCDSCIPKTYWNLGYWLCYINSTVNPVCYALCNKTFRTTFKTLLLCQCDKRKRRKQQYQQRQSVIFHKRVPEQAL
Briefly: Receptor binding test, [3H]NMS, salivary (submandibular) gland (M3). Details: species or system Male Wistar rats. The note with it: in vitro, 0.3 nM [3H]NMS, 40 minutes.

Assay [4] deals with learning-impaired old rats. Briefly: Effect on the memory in the Morris water maze, learning-impaired 24 months old rats. The note with it: 0.2 mg/kg s.c. Type of assay: in vivo, rat. The protocol:
The tests were carried out using the water maze described by R. G. M. Morris in Learn Motive 12:239-249 (1981) using the test method described therein.
On the first day, rats which were 24 months old and therefore learning-impaired (n=7 per group) were given 0.2 mg/kg of compound D by subcutaneous route whilst another group of these animals were given physiological saline solution (s.c.).

Assay [5] deals with arecoline-induced increase in blood pressure. Briefly: Arecoline test: CNS-penetration, in vivo (rat), reduction in the arecoline-induced increase in blood pressure. The note with it: i.v. How it is done:
Cerebroavailable antimuscarinics block this central effect. […] The trachea is incubated, the animals are respirated with an air/oxygen mixture (80 breaths per minute). The blood pressure is recorded after canulation of the carotid artery by means of a pressure recorder (Bell and Howell Type 4-327-I). The test substances are administered through the jugular vein ([…]). […] The arecoline is administered (in doses of 0.3 mg/kg) at 15 minute intervals. After 2 comparison values, the test substance is injected in increasing doses 5 minutes before the next administration of arecoline. The results obtained were compared with the average starting values and determined as the percentage inhibition.

Assay [6] concerns learning ability and memory performance. The note with it: Hunter et al., Sutherland et al., Wishaw; cited from earlier work.

Regarding `CCN(CC)CC1CCCCN1CC(=O)N1c2cc(Cl)ccc2C(=O)Nc2cccnc21` (racemic) [Substance K, (±)-9-chloro-11-[[2-[(diethylamino)methyl]-1-piperidinyl]-acetyl]-5,11-dihydro-6H-pyrido[2,3-b]-[1,4]benzodiazepin-6-one], the Ki in assay [1] turned out to be 126 nM; in assay [2], 25 nM; in assay [3], 759 nM.
Regarding `CCN(CCCC1CCN(CC(=O)N2c3ccccc3C(=O)Nc3cccnc32)CC1)C(=O)C(C)(C)CC` [Substance A, 5,11-dihydro-11-[[4-[3-[(2,2-dimethyl-1-oxobutyl]-ethylamino]-propyl]-1-piperidinyl]acetyl]-6H-pyrido[2,3-b][1,4]benzodiazepin-6-one], the “Selectivity ratio (M1 /M2)” value in assay [2] turned out to be 20.
Take `CCCC(C)(C)C(=O)N(CC)CCCC1CCN(CC(=O)N2c3ccccc3C(=O)Nc3cccnc32)CC1` [Substance B, 5,11-dihydro-[[4-[3-[(2,2-dimethyl-1-oxopentyl)-ethylamino]-propyl]-1-piperidinyl]acetyl]-6H-pyrido[2,3-b][1,4]benzodiazepin-6-one]: in assay [2], the “Selectivity ratio (M1 /M2)” value was 10.
As for `CCCC(C)(C)C(=O)N(CC)CCCCC1CCN(CC(=O)N2c3ccccc3C(=O)Nc3cccnc32)CC1` [Substance C, 5,11-dihydro-11-[[4-[4-[(2,2-dimethyl-1-oxopentyl)-ethylamino]butyl]-1-piperidinyl]acetyl]-6H-pyrido[2,3-b][1,4]benzodiazepin-6-one], the “Selectivity ratio (M1 /M2)” value in assay [2] is on record as 13.
Regarding `CCCC(C)(C)C(=O)N(CC)CCCC1CCN(CC(=O)N2c3ccc(Cl)cc3C(=O)Nc3cccnc32)CC1` [Substance D, 5,11-dihydro-8-chloro-11-[[4-[3-[(2,2-dimethyl-1-oxopentyl)-ethylamino]propyl]-1-piperidinyl]-acetyl]-6H-pyrido[2,3-b][1,4]benzodiazepin-6-one], the “Selectivity ratio (M1 /M2)” value in assay [2] is given as 35. The “memory performance versus young control rats” value in assay [4] (fourth day, 24 months old rats, n=7) is “reached the same level as the control groups of young rats”. Besides, the “memory performance compared with saline-treated learning-impaired old rats” value in assay [4] (observed 4 days, FIG. 1) is “improved memory performance”. The “reduction of latency period in Morris water maze” value in assay [4] (second day, 24 months old rats, n=7) was “approximately 50%”.
`CCN(CCCC1CCN(CC(=O)N2c3ccc(C)cc3C(=O)Nc3cccnc32)CC1)C(=O)C(C)(C)C` [Substance E, 5,11-dihydro-8-methyl-11-[[4-[3-[(2,2-dimethyl-1-oxopropyl)-ethylamino]propyl]-1-piperidinyl]acetyl]-6H-pyrido[2,3-b][,1,4]benzodiazepin-6-one]: the “Selectivity ratio (M1 /M2)” value in assay [2] stood at 10.
Still for that read-out and setting: for `CCN(CCCC1CCN(CC(=O)N2c3ccccc3C(=O)Nc3cccnc32)CC1)C(=O)C(C)(C)C` [Substance F, 5,11-dihydro-11-[[4-[3-[(2,2-dimethyl-1-oxopropyl)-ethylamino]propyl]-1-piperidinyl]acetyl]-6H-pyrido[2,3-b][1,4]benzodiazepin-6-one] the value was 14; for `CCN(CCCC1CCN(CC(=O)N2c3ccc(C)cc3C(=O)Nc3cccnc32)CC1)C(=O)C(C)(C)CC` [Substance G, 5,11-dihydro-8-methyl-11-[[4-[3-[(2,2-dimethyl-1-oxobutyl)ethylamino]propyl]-1-piperidinyl]acetyl]-6H-pyrido[2,3-b][1,4]benzodiazepin-6-one], 24.
On to `CCN(CC)CC1CCCCN1CC(=O)N1c2ccccc2C(=O)Nc2cccnc21` (centres unmarked) [Substance H, 11-[[2-[(diethylamino)methyl]-1-piperidinyl]acetyl]-5,11-dihydro-6H-pyrido[2,3-b][1,4]benzodiazepin-6-one], for which the results for the Ki in assay [1] and in assay [2] were 500 nM and 79 nM, respectively.
For `O=C1Nc2cccnc2N(C(=O)CCC#CCN2CCCCC2)c2ccccc21` [Substance J, 5,11-dihydro-11-[1-oxo-6-(1-piperidinyl)-4-hexyn-1-yl]-6H-pyrido[2,3-b][1,4]benzodiazepin-6-one], the “Selectivity ratio (M1 /M2)” value in assay [2] came to 6.6.
As for `CCCN(CCC)CC1CCCCN1CCNC(=O)N1c2ccccc2C(=O)Nc2cccnc21.CS(=O)(=O)O` (centres unmarked) [Substance L, 5,11-dihydro-11-[[[2-[2-[(dipropylamino)methyl]-1-piperidinyl]ethyl]amino]carbonyl]-6H-pyrido[2,3-b]-[1,4]benzodiazepin-6-one methanesulphonate], the “effect on arecoline-mediated central effects / increase in blood pressure (in words)” value in assay [5] is recorded as “had no effect on the increase in blood pressure caused by arecoline”.
For `O=C1Nc2cccnc2N(C(=O)N2CCCC(CCCN3CCCCC3)C2)c2ccccc21` (centres unmarked) [Substance M, 5,11-dihydro-11-[[3-[3-(1-piperidinyl)-1-propyl]-1-piperidinyl]carbonyl]-6H-pyrido[2,3-b][1,4]benzo-diazepin-6-one], in assay [2], the “Selectivity ratio (M1 /M2)” value is reported as 6.5.
Take `Cc1scc2c1N(C(=O)CCC#CCN1CCCCCC1)c1ccccc1NC2=O` [Substance P, 4,9-dihydro-3-methyl-4-[6-(hexahydro-1H-1-azepinyl)-1-oxo-4-hexyn-1-yl]-10H-thieno[3,4-b][1,5]benzodi-azepin-10-one]: the “Selectivity ratio (M1 /M2)” value in assay [2] is listed as 4.6.
Still for that read-out and setting: under `CCN(CC)CC1COCCN1CCCC(=O)N1c2ccccc2C(=O)Nc2cccnc21` (centres unmarked) [Substance Q, 11-[4-[3-[(diethylamino)methyl]-4-morpholinyl]-1-oxo-1-butyl]-5,11-dihydro-6H-pyrido[2,3-b][1,4]-benzodiazepin-6-one] stands 2.5.
Same read-out and setting: for `CN(CCC1CCCN1C)CC(=O)N1c2ccccc2C(=O)Nc2cccnc21` (centres unmarked) [Substance R, 5,11-dihydro-11-[[[2-(1-methyl-2-pyrrolidinyl)-ethyl]-methylamino]acetyl]-6H-pyrido[2,3-b][1,4]-benzodiazepin-6-one] the value was 2.4; for `CN(CCC1CCCCCN1C)CC(=O)N1c2ccccc2C(=O)Nc2cccnc21` (centres unmarked) [Substance S, 5,11-dihydro-11-[[[2-(1-methyl-hexahydro-1H-2-azepinyl)-ethyl]methylamino]acetyl]-6H-pyrido[2,3-b][1,4]benzodiazepin-6-one], 5.3.
Turning to `CN1CCN(CC(=O)N2c3ccccc3C(=O)Nc3cccnc32)CC1` [pirenzepine], the “learning ability and memory performance (literature)” value in assay [6] was “deterioration in learning ability and memory performance”.

As a reminder, the Ki is a dissociation constant, usually derived from enzyme kinetics or from competition with a known ligand. Low values mean higher affinity, high ones lower affinity.
